Reference: PubChem BioAssay (NCI)
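Each compound was tested at five concentrations against cells in 96-well plates for 48 hours. GI50 marks 50% less growth. TGI denotes the concentration required for complete inhibition of growth.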

Columns and labels:
Assay in all cases: NCI anticancer screen, dose series, 48 h
RPMI-8226 leukemia = tested on: RPMI-8226 leukemia
SN12C renal = tested on: SN12C renal
UO-31 renal = tested on: UO-31 renal
NCI-H522 lung = tested on: NCI-H522 lung
MDA-MB-435 = tested on: MDA-MB-435
SK-MEL-28 melanoma = tested on: SK-MEL-28 melanoma
DU-145 prostate = tested on: DU-145 prostate
SK-MEL-5 melanoma = tested on: SK-MEL-5 melanoma
HL-60(TB) leukemia = tested on: HL-60(TB) leukemia
A549 NSCLC = tested on: A549 NSCLC
BT-549 breast = tested on: BT-549 breast
MDA-MB-231 breast = tested on: MDA-MB-231 breast
LOX IMVI melanoma = tested on: LOX IMVI melanoma
SF-295 CNS = tested on: SF-295 CNS
MALME-3M melanoma = tested on: MALME-3M melanoma
CAKI-1 renal = tested on: CAKI-1 renal
OVCAR-3 ovarian = tested on: OVCAR-3 ovarian
M14 melanoma = tested on: M14 melanoma
HT29 colon = tested on: HT29 colon
MCF7 breast = tested on: MCF7 breast
SNB-19 CNS = tested on: SNB-19 CNS
TK-10 renal = tested on: TK-10 renal
NCI/ADR-RES ovarian = tested on: NCI/ADR-RES ovarian
SNB-75 CNS = tested on: SNB-75 CNS
RXF 393 renal = tested on: RXF 393 renal
SK-OV-3 ovarian = tested on: SK-OV-3 ovarian
NCI-H460 lung = tested on: NCI-H460 lung
NCI-H226 lung = tested on: NCI-H226 lung
K-562 leukemia = tested on: K-562 leukemia
SF-268 CNS = tested on: SF-268 CNS
SK-MEL-2 melanoma = tested on: SK-MEL-2 melanoma
SF-539 CNS = tested on: SF-539 CNS
U251 CNS = tested on: U251 CNS
NCI-H23 lung = tested on: NCI-H23 lung
HOP-62 NSCLC = tested on: HOP-62 NSCLC
ACHN renal = tested on: ACHN renal
HCC-2998 colon = tested on: HCC-2998 colon
MOLT-4 leukemia = tested on: MOLT-4 leukemia
OVCAR-5 ovarian = tested on: OVCAR-5 ovarian
SW-620 colon = tested on: SW-620 colon
COLO 205 colon = tested on: COLO 205 colon
CCRF-CEM leukemia = tested on: CCRF-CEM leukemia
UACC-62 melanoma = tested on: UACC-62 melanoma
T-47D breast = tested on: T-47D breast
PC-3 prostate = tested on: PC-3 prostate
OVCAR-8 ovarian = tested on: OVCAR-8 ovarian
UACC-257 melanoma = tested on: UACC-257 melanoma
786-0 renal = tested on: 786-0 renal
HCT-15 colon = tested on: HCT-15 colon
HCT-116 colon = tested on: HCT-116 colon
IGROV1 ovarian = tested on: IGROV1 ovarian
KM12 colon = tested on: KM12 colon
HS 578T breast = tested on: HS 578T breast
SR leukemia = tested on: SR leukemia
HOP-92 NSCLC = tested on: HOP-92 NSCLC
EKVX NSCLC = tested on: EKVX NSCLC
A498 renal = tested on: A498 renal
OVCAR-4 ovarian = tested on: OVCAR-4 ovarian

CN(C)CCCOc1c2ccc(Cl)cc2nc2c1oc1ccc(Cl)cc12
GI50 (RPMI-8226 leukemia): 1.97 µM
GI50 (SN12C renal): 1.46 µM
TGI (SN12C renal): 5.55 µM
GI50 (UO-31 renal): 1.35 µM
TGI (UO-31 renal): 11.7 µM
GI50 (NCI-H522 lung): 4.33 µM
TGI (NCI-H522 lung): 23.5 µM
GI50 (MDA-MB-435): 2.17 µM
TGI (MDA-MB-435): 6.39 µM
GI50 (SK-MEL-28 melanoma): 5.09 µM
TGI (SK-MEL-28 melanoma): 9.67 µM
GI50 (DU-145 prostate): 4.21 µM
TGI (DU-145 prostate): 14.4 µM
GI50 (SK-MEL-5 melanoma): 4.48 µM
TGI (SK-MEL-5 melanoma): 8.96 µM
GI50 (HL-60(TB) leukemia): 2.95 µM
TGI (HL-60(TB) leukemia): 15.7 µM
GI50 (A549 NSCLC): 2.73 µM
TGI (A549 NSCLC): 11.8 µM
GI50 (BT-549 breast): 7.26 µM
TGI (BT-549 breast): > 30.5 µM
GI50 (MDA-MB-231 breast): 1.92 µM
TGI (MDA-MB-231 breast): 6.5 µM
GI50 (LOX IMVI melanoma): 0.857 µM
TGI (LOX IMVI melanoma): 3.56 µM
GI50 (SF-295 CNS): 2.12 µM
TGI (SF-295 CNS): 6.44 µM
GI50 (MALME-3M melanoma): 3.24 µM
TGI (MALME-3M melanoma): 16.2 µM
GI50 (CAKI-1 renal): 1.39 µM
TGI (CAKI-1 renal): 5.96 µM
GI50 (OVCAR-3 ovarian): 2.43 µM
TGI (OVCAR-3 ovarian): 7.57 µM
GI50 (M14 melanoma): 3.15 µM
TGI (M14 melanoma): 9.37 µM
GI50 (HT29 colon): 1.22 µM
TGI (HT29 colon): 5.15 µM
GI50 (MCF7 breast): 1.24 µM
TGI (MCF7 breast): 4.9 µM
GI50 (SNB-19 CNS): 1.89 µM
TGI (SNB-19 CNS): 6.61 µM
GI50 (TK-10 renal): 6.62 µM
TGI (TK-10 renal): 21.1 µM
GI50 (NCI/ADR-RES ovarian): 3.72 µM
TGI (NCI/ADR-RES ovarian): 17.7 µM
GI50 (SNB-75 CNS): 1.41 µM
TGI (SNB-75 CNS): 6.65 µM
GI50 (RXF 393 renal): 1.8 µM
TGI (RXF 393 renal): 4.88 µM
GI50 (SK-OV-3 ovarian): 3.79 µM
TGI (SK-OV-3 ovarian): 15 µM
GI50 (NCI-H460 lung): 1.08 µM
TGI (NCI-H460 lung): 3.92 µM
GI50 (NCI-H226 lung): 1.99 µM
TGI (NCI-H226 lung): 8.13 µM
GI50 (K-562 leukemia): 1.05 µM
TGI (K-562 leukemia): 5.07 µM
GI50 (SF-268 CNS): 4.85 µM
TGI (SF-268 CNS): 21.8 µM
GI50 (SK-MEL-2 melanoma): 4.66 µM
TGI (SK-MEL-2 melanoma): 12.4 µM
GI50 (SF-539 CNS): 3.37 µM
TGI (SF-539 CNS): 13.8 µM
GI50 (U251 CNS): 3.23 µM
TGI (U251 CNS): 12.9 µM
GI50 (NCI-H23 lung): 3.43 µM
TGI (NCI-H23 lung): 15.6 µM
GI50 (HOP-62 NSCLC): 3.21 µM
TGI (HOP-62 NSCLC): 22 µM
GI50 (ACHN renal): 2.51 µM
TGI (ACHN renal): 13.2 µM
GI50 (HCC-2998 colon): 4.18 µM
TGI (HCC-2998 colon): 15.5 µM
GI50 (MOLT-4 leukemia): 1.23 µM
TGI (MOLT-4 leukemia): 6.58 µM
GI50 (OVCAR-5 ovarian): 2.46 µM
TGI (OVCAR-5 ovarian): 6.76 µM
GI50 (SW-620 colon): 0.9 µM
TGI (SW-620 colon): 4.36 µM
GI50 (COLO 205 colon): 1.33 µM
TGI (COLO 205 colon): 7.87 µM
GI50 (CCRF-CEM leukemia): 2.18 µM
TGI (CCRF-CEM leukemia): 14.1 µM
GI50 (UACC-62 melanoma): 4.85 µM
TGI (UACC-62 melanoma): 10.1 µM
GI50 (T-47D breast): 12.7 µM
TGI (T-47D breast): > 59.1 µM
GI50 (PC-3 prostate): 1.69 µM
TGI (PC-3 prostate): 9.2 µM
GI50 (OVCAR-8 ovarian): 1.49 µM
TGI (OVCAR-8 ovarian): 6.04 µM
GI50 (UACC-257 melanoma): 3.71 µM
TGI (UACC-257 melanoma): 9.21 µM
GI50 (786-0 renal): 4.12 µM
TGI (786-0 renal): 16.1 µM
GI50 (HCT-15 colon): 1.35 µM
TGI (HCT-15 colon): 5.41 µM
GI50 (HCT-116 colon): 3.73 µM
TGI (HCT-116 colon): 23.6 µM
GI50 (IGROV1 ovarian): 2.34 µM
TGI (IGROV1 ovarian): 12.5 µM
GI50 (KM12 colon): 2.22 µM
TGI (KM12 colon): 7.52 µM
GI50 (HS 578T breast): 1.98 µM
TGI (HS 578T breast): 9.43 µM
GI50 (SR leukemia): 1.18 µM
TGI (SR leukemia): 5.33 µM
GI50 (HOP-92 NSCLC): 1.08 µM
TGI (HOP-92 NSCLC): 12.9 µM
GI50 (EKVX NSCLC): 2.46 µM
TGI (EKVX NSCLC): 7.3 µM
GI50 (A498 renal): 6.44 µM
TGI (A498 renal): 27.7 µM
GI50 (OVCAR-4 ovarian): 2.1 µM
TGI (OVCAR-4 ovarian): 6.4 µM
